Measurements published in US10870652B2, “Compounds and methods for modulating bruton's tyrosine kinase” (CORVUS PHARMACEUTICALS, INC., priority 2016, dated 2020).
pIC50: −log10 of the molar value.

Experiments:
Assay type in all cases: biochemical
ITK = target: T1, ITK (Homo sapiens, UniProt Q08881); experiment: ITK IC50 kinase inhibition assay
T1 sequence (Q08881 1-620): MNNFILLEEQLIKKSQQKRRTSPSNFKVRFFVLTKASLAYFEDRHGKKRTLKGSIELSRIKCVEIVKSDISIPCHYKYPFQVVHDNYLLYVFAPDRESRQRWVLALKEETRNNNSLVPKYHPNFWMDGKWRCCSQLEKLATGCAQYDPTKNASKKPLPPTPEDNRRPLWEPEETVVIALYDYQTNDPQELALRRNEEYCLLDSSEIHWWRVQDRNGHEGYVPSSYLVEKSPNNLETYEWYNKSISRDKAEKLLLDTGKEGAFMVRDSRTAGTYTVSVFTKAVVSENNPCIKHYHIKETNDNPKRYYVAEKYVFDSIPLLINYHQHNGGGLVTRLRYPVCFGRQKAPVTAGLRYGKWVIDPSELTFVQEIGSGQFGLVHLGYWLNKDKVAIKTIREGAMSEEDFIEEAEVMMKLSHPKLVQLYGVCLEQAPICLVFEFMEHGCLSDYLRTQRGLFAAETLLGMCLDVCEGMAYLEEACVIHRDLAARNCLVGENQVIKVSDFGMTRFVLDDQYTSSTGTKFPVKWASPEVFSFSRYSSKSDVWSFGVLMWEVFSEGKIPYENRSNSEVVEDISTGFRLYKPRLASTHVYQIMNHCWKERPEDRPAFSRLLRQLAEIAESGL

BTK = BTK (Homo sapiens, UniProt Q06187); experiment: BTK IC50 kinase inhibition assay
JAK3 = target: T2, JAK3 (Homo sapiens, UniProt P52333); experiment: JAK3 IC50 kinase inhibition assay
T2 sequence (P52333 1-1124): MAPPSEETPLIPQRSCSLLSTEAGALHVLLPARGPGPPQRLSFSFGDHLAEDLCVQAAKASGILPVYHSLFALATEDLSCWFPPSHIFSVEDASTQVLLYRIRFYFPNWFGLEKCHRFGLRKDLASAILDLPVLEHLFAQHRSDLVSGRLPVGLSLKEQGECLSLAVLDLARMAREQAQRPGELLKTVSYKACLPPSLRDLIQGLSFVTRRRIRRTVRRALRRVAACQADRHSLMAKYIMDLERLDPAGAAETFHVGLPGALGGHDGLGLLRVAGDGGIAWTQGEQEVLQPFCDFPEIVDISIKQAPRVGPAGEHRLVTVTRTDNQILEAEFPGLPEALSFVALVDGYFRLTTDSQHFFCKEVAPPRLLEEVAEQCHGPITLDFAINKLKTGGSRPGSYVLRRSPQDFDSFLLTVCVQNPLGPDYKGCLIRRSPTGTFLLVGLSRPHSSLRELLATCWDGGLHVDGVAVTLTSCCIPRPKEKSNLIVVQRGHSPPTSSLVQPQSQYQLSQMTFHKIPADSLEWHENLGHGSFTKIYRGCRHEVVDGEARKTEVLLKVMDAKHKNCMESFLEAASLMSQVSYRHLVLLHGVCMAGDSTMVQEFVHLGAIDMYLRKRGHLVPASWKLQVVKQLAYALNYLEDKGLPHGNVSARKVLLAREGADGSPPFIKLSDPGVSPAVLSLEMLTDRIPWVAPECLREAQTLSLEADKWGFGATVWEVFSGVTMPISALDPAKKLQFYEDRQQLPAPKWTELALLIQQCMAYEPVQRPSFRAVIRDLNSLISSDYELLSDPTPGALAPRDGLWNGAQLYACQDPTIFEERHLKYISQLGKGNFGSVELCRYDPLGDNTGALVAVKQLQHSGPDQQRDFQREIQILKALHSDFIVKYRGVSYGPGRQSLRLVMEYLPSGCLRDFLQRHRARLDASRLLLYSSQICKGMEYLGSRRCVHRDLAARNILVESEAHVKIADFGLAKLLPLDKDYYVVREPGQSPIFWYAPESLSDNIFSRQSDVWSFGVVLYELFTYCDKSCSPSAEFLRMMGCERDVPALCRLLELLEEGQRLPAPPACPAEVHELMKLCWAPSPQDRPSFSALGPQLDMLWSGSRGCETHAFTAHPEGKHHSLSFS

TXK = target: T3, TXK (Homo sapiens, UniProt P42681); experiment: TXK IC50 kinase inhibition assay
T3 sequence (P42681 1-527): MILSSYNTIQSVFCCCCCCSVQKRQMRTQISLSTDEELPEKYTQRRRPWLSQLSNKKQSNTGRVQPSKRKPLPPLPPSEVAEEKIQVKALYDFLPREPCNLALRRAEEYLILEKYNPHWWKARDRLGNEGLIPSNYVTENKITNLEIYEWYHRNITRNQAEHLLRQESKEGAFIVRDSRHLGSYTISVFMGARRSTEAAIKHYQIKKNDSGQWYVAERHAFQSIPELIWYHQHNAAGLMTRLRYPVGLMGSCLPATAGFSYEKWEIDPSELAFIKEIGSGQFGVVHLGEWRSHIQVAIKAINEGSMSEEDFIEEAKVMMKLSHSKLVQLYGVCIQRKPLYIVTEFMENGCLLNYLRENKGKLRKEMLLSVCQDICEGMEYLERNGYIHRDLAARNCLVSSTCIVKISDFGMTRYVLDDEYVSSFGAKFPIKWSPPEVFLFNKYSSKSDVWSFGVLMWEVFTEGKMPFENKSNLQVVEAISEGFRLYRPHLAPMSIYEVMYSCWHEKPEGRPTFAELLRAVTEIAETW

Sequence of BTK (Q06187 whole entry): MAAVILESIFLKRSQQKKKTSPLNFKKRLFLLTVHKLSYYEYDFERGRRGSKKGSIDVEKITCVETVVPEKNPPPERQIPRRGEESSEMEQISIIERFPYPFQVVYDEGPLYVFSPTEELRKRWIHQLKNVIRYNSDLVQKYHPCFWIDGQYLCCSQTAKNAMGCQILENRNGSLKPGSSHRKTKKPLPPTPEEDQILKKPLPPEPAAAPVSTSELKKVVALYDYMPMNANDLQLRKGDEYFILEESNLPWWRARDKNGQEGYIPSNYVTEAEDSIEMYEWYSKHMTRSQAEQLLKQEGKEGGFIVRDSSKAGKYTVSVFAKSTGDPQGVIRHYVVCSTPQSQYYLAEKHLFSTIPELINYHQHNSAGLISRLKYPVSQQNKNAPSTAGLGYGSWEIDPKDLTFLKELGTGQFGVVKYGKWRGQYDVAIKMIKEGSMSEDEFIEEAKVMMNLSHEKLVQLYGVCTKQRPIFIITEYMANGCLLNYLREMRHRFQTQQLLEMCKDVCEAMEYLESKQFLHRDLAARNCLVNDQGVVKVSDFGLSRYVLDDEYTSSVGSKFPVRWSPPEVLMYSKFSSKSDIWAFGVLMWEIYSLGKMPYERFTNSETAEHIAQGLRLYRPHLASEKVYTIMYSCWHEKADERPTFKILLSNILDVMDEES

Compound	pIC50 (ITK)	pIC50 (BTK)	pIC50 (JAK3)	pIC50 (TXK)
CC#CC(=O)N1CCC[C@H]1Cn1nc(-c2ccc(Oc3ccccc3)cc2F)c2cncnc21 [Compound A20, (S)-1-(2-((3-(2-fluoro-4-phenoxyphenyl)-1H-pyrazolo[3,4-d]pyrimidin-1-yl)methyl)pyrrolidin-1-yl)but-2-yn-1-one]	< 6.30	> 7.00	< 6.30	< 6.30
C=CC(=O)N[C@H]1CC[C@H](n2nc(-c3ccc(Oc4ccccc4)cc3)c3cncnc32)CC1 [Compound A56, N-((1r,4r)-4-(3-(4-phenoxyphenyl)-1H-pyrazolo[3,4-d]pyrimidin-1-yl)cyclohexyl)acrylamide]	< 6.30	< 6.30	< 6.30	< 6.30
C=CC(=O)N1CC[C@H](n2nc(-c3ccc(Oc4ccccc4)cc3)c3cncnc32)C1 [Compound A12, (S)-1-(3-(3-(4-phenoxyphenyl)-1H-pyrazolo[3,4-d]pyrimidin-1-yl)pyrrolidin-1-yl)prop-2-en-1-one]	< 6.30	> 7.00	< 6.30	6.30 to 7.00
C=CC(=O)N1CCC[C@H]1Cn1nc(-c2ccc(Oc3cccc(CC)c3)cc2)c2cncnc21 [Compound A46, (S)-1-(2-((3-(4-(3-ethylphenoxy)phenyl)-1H-pyrazolo[3,4-d]pyrimidin-1-yl)methyl)pyrrolidin-1-yl)prop-2-en-1-one]	< 6.30	> 7.00	< 6.30	> 7.00
C=CC(=O)N1CC(C)(C)C[C@H]1Cn1nc(-c2ccc(Oc3ccccc3)cc2)c2cncnc21 [Compound A49, (S)-1-(4,4-dimethyl-2-((3-(4-phenoxyphenyl)-1H-pyrazolo[3,4-d]pyrimidin-1-yl)methyl)pyrrolidin-1-yl)prop-2-en-1-one]	< 6.30	> 7.00	< 6.30	> 7.00
CC#CC(=O)N1CC[C@@H](c2nc(-c3ccc(Oc4ccccc4)cc3)c3cnccn23)C1 [Compound A32, (R)-1-(3-(1-(4-phenoxyphenyl)imidazo[1,5-a]pyrazin-3-yl)pyrrolidin-1-yl)but-2-yn-1-one]	< 6.30	> 7.00	< 6.30	6.30 to 7.00
C=CC(=O)N1CCC[C@@H](n2nc(-c3ccc(Oc4ccccc4)cc3)c3cncnc32)C1 [Compound A9, (R)-1-(3-(3-(4-phenoxyphenyl)-1H-pyrazolo[3,4-d]pyrimidin-1-yl)piperidin-1-yl)prop-2-en-1-one]	< 6.30	> 7.00	< 6.30	> 7.00
C=CC(=O)N1CCC[C@@H](n2nc(-c3ccc(Oc4c(F)cccc4F)cc3)c3cncnc32)C1 [Compound A50, (R)-1-(3-(3-(4-(2,6-difluorophenoxy)phenyl)-1H-pyrazolo[3,4-d]pyrimidin-1-yl)piperidin-1-yl)prop-2-en-1-one]	< 6.30	> 7.00	< 6.30	6.30 to 7.00
C=CC(=O)N1CC2(CC(n3nc(-c4ccc(Oc5ccccc5)cc4)c4cncnc43)C2)C1 [Compound A37, 1-(6-(3-(4-phenoxyphenyl)-1H-pyrazolo[3,4-d]pyrimidin-1-yl)-2-azaspiro[3.3]heptan-2-yl)prop-2-en-1-one]	< 6.30	> 7.00	< 6.30	6.30 to 7.00
C=CC(=O)N1CC(Cn2nc(-c3ccc(Oc4ccccc4)cc3)c3cncnc32)C1 [Compound A35, 1-(3-((3-(4-phenoxyphenyl)-1H-pyrazolo[3,4-d]pyrimidin-1-yl)methyl)azetidin-1-yl)prop-2-en-1-one]	< 6.30	> 7.00	< 6.30	6.30 to 7.00
C=CC(=O)N1CCC[C@@H](n2nc(-c3ccc(Oc4ccccc4)cc3C)c3cncnc32)C1 [Compound A4, (R)-1-(3-(3-(2-methyl-4-phenoxyphenyl)-1H-pyrazolo[3,4-d]pyrimidin-1-yl)piperidin-1-yl)prop-2-en-1-one]	< 6.30	> 7.00	< 6.30	> 7.00
C=CC(=O)N1CCC2(CC1)CC(n1nc(-c3ccc(Oc4ccccc4)cc3)c3cncnc31)C2 [Compound A54, 1-(2-(3-(4-phenoxyphenyl)-1H-pyrazolo[3,4-d]pyrimidin-1-yl)-7-azaspiro[3.5]nonan-7-yl)prop-2-en-1-one]	< 6.30	< 6.30	< 6.30	< 6.30
C=CC(=O)N1CCC[C@@H](n2nc(-c3ccc(Oc4ccccc4)c(F)c3)c3cncnc32)C1 [Compound A3, (R)-1-(3-(3-(3-fluoro-4-phenoxyphenyl)-1H-pyrazolo[3,4-d]pyrimidin-1-yl)piperidin-1-yl)prop-2-en-1-one]	< 6.30	> 7.00	< 6.30	> 7.00
C=CC(=O)N1CCC[C@@H](n2nc(-c3cccc(Oc4ccccc4)c3)c3cncnc32)C1 [Compound A1, (R)-1-(3-(3-(3-phenoxyphenyl)-1H-pyrazolo[3,4-d]pyrimidin-1-yl)piperidin-1-yl)prop-2-en-1-one]	< 6.30	> 7.00	< 6.30	6.30 to 7.00
C=C(F)C(=O)N1CCC[C@@H](n2nc(-c3ccc(Oc4ccccc4)cc3)c3cncnc32)C1 [Compound A62, (R)-2-fluoro-1-(3-(3-(4-phenoxyphenyl)-1H-pyrazolo[3,4-d]pyrimidin-1-yl)piperidin-1-yl)prop-2-en-1-one]	< 6.30	6.30 to 7.00	< 6.30	6.30 to 7.00
CC#CC(=O)N1CCC2(CC1)CC(n1nc(-c3ccc(Oc4ccccc4)cc3)c3cncnc31)C2 [Compound A68, 1-(2-(3-(4-phenoxyphenyl)-1H-pyrazolo[3,4-d]pyrimidin-1-yl)-7-azaspiro[3.5]nonan-7-yl)but-2-yn-1-one]	< 6.30	< 6.30	< 6.30	< 6.30
CC#CC(=O)N1CC(Cn2nc(-c3ccc(Oc4ccccc4)cc3)c3cncnc32)C1 [Compound A58, 1-(3-((3-(4-phenoxyphenyl)-1H-pyrazolo[3,4-d]pyrimidin-1-yl)methyl)azetidin-1-yl)but-2-yn-1-one]	< 6.30	< 6.30	< 6.30	< 6.30
C=CC(=O)N1CCC(Cn2nc(-c3ccc(Oc4ccccc4)cc3)c3cncnc32)CC1 [Compound A34, 1-(4-((3-(4-phenoxyphenyl)-1H-pyrazolo[3,4-d]pyrimidin-1-yl)methyl)piperidin-1-yl)prop-2-en-1-one]	< 6.30	> 7.00	< 6.30	< 6.30
